1 molecule from patent US20190327974A1, “SYNERGISTS FOR IMPROVED PESTICIDES” (priority 2017, published 2019) can be followed below.

The target of data set [1] is bacterial AmpC β-lactamase (Escherichia coli, UniProt P00811). The experiment in a line: AmpC β-lactamase selectivity. Format: biochemical. On the procedure: To characterize the selectivity of boronic acids 1 to 5, they were assayed against AChE, the target of OP and carbamate insecticides (Table 1) as well as trypsin and bacterial AmpC β-lactamase. […] The toxicity of the hits against two human cell lines was further assessed.
bacterial AmpC β-lactamase, sequence (P00811 20-377): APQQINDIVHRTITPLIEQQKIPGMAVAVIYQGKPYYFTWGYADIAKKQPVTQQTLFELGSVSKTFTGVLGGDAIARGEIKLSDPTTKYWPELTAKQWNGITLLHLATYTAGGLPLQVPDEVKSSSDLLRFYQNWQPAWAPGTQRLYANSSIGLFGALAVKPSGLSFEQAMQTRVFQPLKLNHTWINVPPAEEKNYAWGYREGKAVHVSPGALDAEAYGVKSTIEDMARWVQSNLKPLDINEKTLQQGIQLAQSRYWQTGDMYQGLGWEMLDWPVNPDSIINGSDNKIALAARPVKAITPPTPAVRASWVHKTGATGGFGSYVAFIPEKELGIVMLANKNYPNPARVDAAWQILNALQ
To characterize the selectivity of boronic acids 1 to 5, they were assayed against the target of OP insecticides, AChE, as well as trypsin and bacterial AmpC β-lactamase (Table 1). AChE and αE7 are homologous, sharing the α/β-hydrolase fold and the same catalytic machinery, however the topology of their binding pockets is dissimilar (Jackson, C. J. et al. Structure and function of an insect α-carboxylesterase (αEsterase7) associated with insecticide resistance. Proc. Natl. Acad. Sci. U.S.A. 110, 10177-82 (2013) and Correy, G. J. et al. Mapping the Accessible Conformational Landscape of an Insect Carboxylesterase Using Conformational Ensemble Analysis and Kinetic Crystallography. Structure 24, 1-11 (2016).). Both trypsin and AmpC β-lactamase contain an activated serine nucleophile and oxyanion hole, however trypsin contains a serine-histidine-aspartic acid (Hedstrom, L. Serine protease mechanism and specificity. Chem. Rev. 102, 4501-4523 (2002).) while AmpC β-lactamase contains a serine-tyrosine-lysine catalytic triad (Dubus, A., et al. The roles of residues Tyr150, Glu272, and His314 in class C β-lactamases. Proteins Struct. Funct. Genet. 25, 473-485 (1996).).

Data set [2] concerns Ostrinia nubilalis (European corn borer). The data set is described as follows: CPE combined with boronic acid derivatives on corn leaves. The note with it: for Percentage of efficacy / Evaluation of Larvae number, Mean: boronic acid alone 0.2 mg/ml; for Evaluation of Larvae number, Mean: 12 larvae/box. Format: in vivo. On the procedure:
Treatments were performed by spraying a volume of mixture corresponding to 200 l/ha. 4 boxes/condition.
Drying 1 h at 20° C.; Deposit of three leaf fragments per box on water agar (4 box/condition); Infection of each leaf fragment with 4 Ostrinia nubilalis (12 larvae/box); Incubation 18° C./28° C. […] The percentage of mortality was calculated for each assessment times. Statistical analysis of the data was performed with XLSTAT® software (ANOVAs followed by Newman-Keuls tests with a threshold of 5%, see Table below).

Data set [3] relates to panel of CBEs from various pests. The experiment in a line: Panel of insect CBEs as a whole. Format: biochemical. As to the method:
Assays were performed with 4-NPB as the substrate.

`OB(O)c1ccc(OCc2ccccc2F)c(Cl)c1` [Compound 5, 3-Chloro-4(2′-fluorobenzyloxy) phenylboronic acid]: the inhibition constant (Ki) in data set [1] came out at 220 nM. Moreover, the “toxicity of the boronic acid derivative alone (in words)” value in data set [2] (0.2 mg/ml, some larvae death with 3.10 and 3.7 at 6 DAT) is “Absence of significant toxicity”. Also, the Percentage of efficacy in data set [2] (1 DAT) was determined as 0%; in data set [2] (3 DAT), 0%; in data set [2] (6 DAT), 4%. Moreover, the “Evaluation of Larvae number, Mean” value worked out at 12 in data set [2] (1 DAT), 12 in data set [2] (3 DAT) and 10.3 in data set [2] (6 DAT). Further, the “inhibition spectrum across CBEs” value in data set [3] was “efficiently inhibiting six different CBEs”.
